# Measured values taken from PMC3625590, “NBM-T-L-BMX-OS01, Semisynthesized from Osthole, Is a Novel Inhibitor of Histone Deacetylase and Enhances Learning and Memory in Rats” (Evidence-based Complementary and Alternative Medicine : eCAM, 2013).
# Key:
# [1] = tested on: primary hippocampal neurons; test: MTT cell survival assay; assay type: cell-based, Sprague-Dawley rats; conditions: 1, 2.5, 5 and 10 μM, DIV 5, 24 h
# Experimental: (§1) The primary hippocampal culture was prepared as described previously. To culture embryonic hippocampal primary neurons, pregnant Sprague-Dawley rats were purchased from the National Laboratory Center in Taiwan. The hippocampal tissue from the embryos of the Sprague-Dawley rats (E19) was dissociated with 100 U/mL of papain (Sigma-Aldrich) and plated onto poly-L-lysine-coated coverslips at a density of 1 × 10^4 cells/cm^2 with a minimal essential medium containing 5% calf serum, 5% horse serum, and 50 ng/mL insulin-transferrin-selenite (Sigma-Aldrich). Three hours after plating, the medium was replaced with 2% of a B27-neurobasal medium (Invitrogen, Carlsbad, CA, USA) containing 0.5 mM glutamine and 12.5 μM glutamate.
# Cell viability was evaluated by an MTT (3-(4,5-dimethylthiazol-2-yl)-2,5-diphenyl tetrazolium bromide, Sigma-Aldrich) assay 24 h after SAHA and BMX treatment at concentrations of 0, 1, 2.5, 5, and 10 μM. The protocol was performed as described previously. Cells were incubated with an MTT (0.5 mg/mL) reagent (Sigma-Aldrich) at 37°C for 1 h. The MTT solution was removed, and DMSO was added to the wells shaken at room temperature for 1 h. The amount of MTT formazan product was quantified by measuring its absorbance at 570 and 630 nm by using an ELISA plate reader (SpectraMax M2 Microplate Readers, Molecular Devices, Sunnyvale, CA, USA).
# CREB = CREB phosphorylation at Ser133 in hippocampal cultured neurons; assay type: cell-based, Sprague-Dawley rats
# Experimental: as §1
# The hippocampus tissue and primary hippocampal cells were lysed and sonicated in an RIPA buffer (50 mM Tris-HCl (pH 7.4), 150 mM NaCl, 2 mM EDTA, 1% IGEPAL CA-630, 1 mM phenylmethylsulfonyl fluoride (PMSF), 20 μg/mL pepstatin A, 20 μg/mL leupeptin, 20 μg/mL aprotinin, 50 mM NaF, and 1 mM Na3VO4). The protocol was performed as described previously. The lysate was resolved by 8% SDS-PAGE. […] The protein bands were quantified using the NIH Image J Software.
# Sco-induced amnesia rats [2] = test: Passive one-way avoidance, Sco-induced memory impairment; assay type: in vivo, Sprague-Dawley rats; conditions: Sco 1.5 mg/kg/d; BMX or SAHA 5 mg/kg/d i.p.; 1 day and 7 days after footshock
# Experimental: The BMX and SAHA stock (100 mg/mL) was dissolved in DMSO and diluted with saline to a final concentration of 0.5 mg/mL (in 0.5% DMSO/saline). Sco was dissolved in saline to a final concentration of 0.15 mg/mL based on previous studies [35, 36]. SD rats were randomly divided into 3 groups. For the naïve animal experiments, the BMX-injected or SAHA-injected groups were injected with BMX (5 mg/kg/d) or SAHA (5 mg/kg/d) intraperitoneally 7 d prior to behavioral experiments and during the experimentation. The control group received the 0.5% DMSO/saline injection. The injection volume was 10 μL/g of body weight. The injections were performed once per day. For the amnesia experiment, the protocol was adopted from previous studies [35, 36] with modifications. The Sco-injected (SAHA + Sco) or (BMX + Sco)-injected groups were injected with Sco (1.5 mg/kg/d), SAHA (5 mg/kg/d) or BMX (5 mg/kg/d), intraperitoneally 7 d prior to behavioral experiments and during the experimentation. The control group received the 0.5% DMSO/saline injection. The injection volume was 10 μL/g of body weight. […]
# The apparatus consisted of a trough-shaped alley divided by a sliding door that separates an illuminated safety compartment and a dark compartment. […] The behavioral task, including the training and testing procedures, was recorded between 8:00 AM and 6:00 PM. […]
# [3] = tested on: primary hippocampal neurons; test: Neurite outgrowth by immunocytochemistry; assay type: cell-based, Sprague-Dawley rats
# Experimental: as §1
# Supplemental Materials and Methods
# 2.1. HEK293T cells. HEK293T cells were maintained in Dulbecco’s modified Eagle’s medium (Invitrogen) supplemented with 10% fetal calf serum (Invitrogen). Cultures were maintained in a humidified 5% CO2-95% air atmosphere at 37°C.
# 2.2. Immunocytochemistry. Cultured hippocampal neurons were fixed with 4% paraformaldehyde for 15 min and permeablized with 0.1% Triton X-100 for 20 min at room temperature (RT). The primary Mouse anti-β III tubulin and anti-actin (Millipore) Abs were added for 1 h at RT. […]
# The lysate was resolved by 8% SDS-PAGE. […] The protein bands were quantified using the NIH Image J Software. […]
# Sco-induced amnesia rats [4] = test: Novel object recognition, Sco-induced memory impairment; assay type: in vivo, Sprague-Dawley rats; conditions: Sco 1.5 mg/kg/d; BMX or SAHA 5 mg/kg/d i.p.; 8 h
# Experimental: SAHA was supplied by NatureWise Biotech and Medicals Corporation (Taipei, Taiwan). […] (St. Louis, MO, USA). The BMX and SAHA stock (100 mg/mL) was dissolved in DMSO and diluted with saline to a final concentration of 0.5 mg/mL (in 0.5% DMSO/saline). […] SD rats were randomly divided into 3 groups. For the naïve animal experiments, the BMX-injected or SAHA-injected groups were injected with BMX (5 mg/kg/d) or SAHA (5 mg/kg/d) intraperitoneally 7 d prior to behavioral experiments and during the experimentation. The control group received the 0.5% DMSO/saline injection. The injection volume was 10 μL/g of body weight. The injections were performed once per day. For the amnesia experiment, the protocol was adopted from previous studies with modifications. […] The control group received the 0.5% DMSO/saline injection. The injection volume was 10 μL/g of body weight. […] The method used was adopted from that of a previous study with modifications. During familiarization, rats were allowed to explore 2 identical objects in an open field box (90 × 70 × 60 cm) for 5 min. The criteria used for exploration were a distance less than 1.5 cm between the rat and the object or direct contact with the object. […] The time that each rat spent exploring the 2 objects during a 5 min period was recorded. […]
structure (smiles),measurement,setting,value
"O=C(CCCCCCC(=O)Nc1ccccc1)NO [SAHA, suberoylanilide hydroxamic acid, reference compound]",survival rate of primary hippocampal neurons (MTT),[1],"reduced the survival rate of the hippocampal neurons at concentrations of 2.5, 5, and 10 μM"
same,CREB phosphorylation at Ser133,CREB,increased CREB phosphorylation at Ser133
same,retention time in the illuminated chamber,Sco-induced amnesia rats [2],showed less retention time in the illuminated chamber
same,neurite branch and neurite length,[3],increased the neurite length in particular
same,exploratory preference for the novel object (NO),Sco-induced amnesia rats [4],showed no exploratory preference for the NO
